Results: publication PMC8815882, “Screening the pandemic response box identified benzimidazole carbamates, Olorofim and ravuconazole as promising drug candidates for the treatment of eumycetoma” (PLoS Neglected Tropical Diseases, 2022)
Like-named read-outs stand apart in the source and are kept apart here.

Tested on: M. mycetomatis genome strain MM55
Test: CLSI M38-A2 based in vitro susceptibility screening (XTT or resazurin), growth at fixed concentration
Assay type: cell-based, Madurella mycetomatis
Settings: Madurella mycetomatis; for Percent fungal survival at 100 µM: read-out: Percentage survival at 100um, 100 uM A (second replicate column)
[1] = mean of three replicates, read-out: Percentage survival at 25um, 25 uM mean
[2] = replicate A, read-out: Percentage survival at 25um, 25 um A
[3] = replicate B, read-out: Percentage survival at 25um, 25 uM B
[4] = replicate C, read-out: Percentage survival at 25um, 25 uM C
[5] = first replicate column, read-out: Percentage survival at 100um, 100 uM A
[6] = mean of three replicates, read-out: Percentage survival at 100um, 100 uM mean
[7] = second replicate column, read-out: Percentage survival at 100um, 100 uM A
[8] = third replicate column, read-out: Percentage survival at 100um, 100 uM A
[9] = mean of three, M. mycetomatis MM55, read-out: Percentage survival at 25um, 25 uM mean
[10] = replicate A, M. mycetomatis MM55, read-out: Percentage survival at 25um, 25 um A
[11] = replicate B, M. mycetomatis MM55, read-out: Percentage survival at 25um, 25 uM B
[12] = replicate C, M. mycetomatis MM55, read-out: Percentage survival at 25um, 25 uM C
[13] = mean of three, M. mycetomatis MM55, read-out: Percentage survival at 100um, 100 uM mean
[14] = replicate 1, M. mycetomatis MM55, read-out: Percentage survival at 100um, 100 uM A (first replicate column)
[15] = replicate 2, M. mycetomatis MM55
[16] = replicate 3, M. mycetomatis MM55, read-out: Percentage survival at 100um, 100 uM A (third replicate column)

SMILES: Cc1[nH]c2ccccc2c1CC(=O)N[C@@H](Cc1ccccc1)C(=O)N(C)c1ccccc1 [MMV1580798]
- activity at 25 µM [1]: 85.4%
- activity at 25 µM [2]: 85.6%
- activity at 25 µM [3]: 92.9%
- activity at 25 µM [4]: 77.6%
- activity at 100 µM [5]: 87.3%
- activity at 100 µM [6]: 82.4%
- activity at 100 µM [7]: 79.6%
- activity at 100 µM [8]: 80.5%

SMILES: COc1ccc(COc2cc3oc(=O)c4cc(C(C)O)ccc4c3cc2OC)cc1 (stereo not shown) [MMV1580799]
- activity at 25 µM [1]: 95.8%
- activity at 25 µM [2]: 100%
- activity at 25 µM [3]: 103%
- activity at 25 µM [4]: 84.1%
- activity at 100 µM [5]: 90.3%
- activity at 100 µM [6]: 91.5%
- activity at 100 µM [7]: 87.1%
- activity at 100 µM [8]: 97%

SMILES: N#Cc1cc([N+](=O)[O-])ccc1Oc1ccccc1Cl [MMV1580800]
- activity at 25 µM [1]: 66.8%
- activity at 25 µM [2]: 54.7%
- activity at 25 µM [3]: 82.6%
- activity at 25 µM [4]: 63.1%
- activity at 100 µM [5]: 3.13%
- activity at 100 µM [6]: 19.4%
- activity at 100 µM [7]: 3.43%
- activity at 100 µM [8]: 51.7%

SMILES: Cc1nc2ccc(Cl)cc2c(-c2ccccc2)c1CC(=O)O [MMV1580801]
- activity at 25 µM [1]: 86.1%
- activity at 25 µM [2]: 87.4%
- activity at 25 µM [3]: 94.3%
- activity at 25 µM [4]: 76.7%
- activity at 100 µM [5]: 85.8%
- activity at 100 µM [6]: 83.4%
- activity at 100 µM [7]: 76.8%
- activity at 100 µM [8]: 87.5%

SMILES: Nc1nc(NC2Cc3ccc(F)cc3C2)nc(N2CCCCC2)n1 (stereo not shown) [MMV1580839]
- activity at 25 µM (mean of replicates, read-out: Percentage survival at 25um, 25 uM mean): 40.6%
- activity at 25 µM [2]: 58.8%
- activity at 25 µM [3]: 53.9%
- activity at 25 µM [4]: 9.06%
- activity at 100 µM (mean of replicates, read-out: Percentage survival at 100um, 100 uM mean): 1.55%
- activity at 100 µM (replicate 1, read-out: Percentage survival at 100um, 100 uM A): -0.246%
- activity at 100 µM (replicate 2, read-out: Percentage survival at 100um, 100 uM A): 0.453%
- activity at 100 µM (replicate 3, read-out: Percentage survival at 100um, 100 uM A): 4.45%

SMILES: O=C(Nc1ccc(Cl)c(C(F)(F)F)c1)C(CCCl)C(=O)Nc1ccc(Cl)c(C(F)(F)F)c1 [MMV1580840]
- activity at 25 µM [9]: 56.9%
- activity at 25 µM [10]: 58.8%
- activity at 25 µM [11]: 55.1%
- activity at 25 µM [12]: 56.9%
- activity at 100 µM [13]: 36.8%
- activity at 100 µM [14]: 0.352%
- Percent fungal survival at 100 µM [15]: 58.3%
- activity at 100 µM [16]: 51.8%

SMILES: O=S(=O)(NCB(O)O)c1cc2c(Cl)ccc(Cl)c2s1 [MMV1580841]
- activity at 25 µM (mean, read-out: Percentage survival at 25um, 25 uM mean): 69.4%
- activity at 25 µM [2]: 79.1%
- activity at 25 µM [3]: 74.7%
- activity at 25 µM [4]: 54.3%
- activity at 100 µM (mean, read-out: Percentage survival at 100um, 100 uM mean): 70.2%
- activity at 100 µM (replicate (first column), read-out: Percentage survival at 100um, 100 uM A): 88.2%
- activity at 100 µM (replicate (second column), read-out: Percentage survival at 100um, 100 uM A): 69.4%
- activity at 100 µM (replicate (third column), read-out: Percentage survival at 100um, 100 uM A): 53%

SMILES: Clc1cc2nc(C3CCNCC3)n(Cc3ccc(CNCCc4cnc[nH]4)cc3)c2cc1Cl [MMV1580842]
- activity at 25 µM [9]: 86.1%
- activity at 25 µM [10]: 92.3%
- activity at 25 µM [11]: 94.9%
- activity at 25 µM [12]: 71.1%
- activity at 100 µM [13]: 66.3%
- activity at 100 µM [14]: 60.7%
- Percent fungal survival at 100 µM [15]: 74.3%
- activity at 100 µM [16]: 64.1%

SMILES: C[Si]1(C)CCN(Cc2cc(-c3ccc(Cl)cc3)n(-c3ccc(Cl)cc3)n2)CC1 [MMV1580843]
- activity at 25 µM (mean of replicates, MM55, read-out: Percentage survival at 25um, 25 uM mean): 67.7%
- activity at 25 µM (replicate A, MM55, read-out: Percentage survival at 25um, 25 um A): 56.5%
- activity at 25 µM (replicate B, MM55, read-out: Percentage survival at 25um, 25 uM B): 86.3%
- activity at 25 µM (replicate C, MM55, read-out: Percentage survival at 25um, 25 uM C): 60.2%
- activity at 100 µM (mean of replicates, MM55, read-out: Percentage survival at 100um, 100 uM mean): 57.4%
- activity at 100 µM (replicate 1, MM55, read-out: Percentage survival at 100um, 100 uM A): 52%
- activity at 100 µM (replicate 2, MM55, read-out: Percentage survival at 100um, 100 uM A): 70.7%
- activity at 100 µM (replicate 3, MM55, read-out: Percentage survival at 100um, 100 uM A): 49.4%

SMILES: CCc1nc(N)nc(N)c1C#CC(C)c1cc(OC)cc(-c2ccncc2)c1 (stereo not shown) [MMV1580844]
- activity at 25 µM [9]: 31.6%
- activity at 25 µM [10]: 86.9%
- activity at 25 µM [11]: 5.16%
- activity at 25 µM [12]: 2.83%
- activity at 100 µM [13]: -1.56%
- activity at 100 µM [14]: -1.7%
- Percent fungal survival at 100 µM [15]: -1.01%
- activity at 100 µM [16]: -1.98%

SMILES: CC(=O)N[C@H](C)C(=O)N[C@H](Cc1ccccc1)C(=O)O [MMV1580845]
- activity at 25 µM [1]: 87.9%
- activity at 25 µM [2]: 86.4%
- activity at 25 µM [3]: 86.8%
- activity at 25 µM [4]: 90.5%
- activity at 100 µM [6]: 86.9%
- activity at 100 µM (replicate 1, read-out: Percentage survival at 100um, 100 uM A (first replicate column)): 88.3%
- Percent fungal survival at 100 µM (replicate 2): 84.1%
- activity at 100 µM (replicate 3, read-out: Percentage survival at 100um, 100 uM A (third replicate column)): 88.3%
